Measured values from the supplement of paper PMC10307832.

Key:
Assay in all cases: relative viability (nuclei count vs DMSO), 5 days (fraction); higher = more cells survive
[1] = compound: C=CCNC1=C2C[C@@H](C)C[C@H](OC)[C@H](O)[C@@H](C)/C=C(\C)[C@H](OC(N)=O)[C@@H](OC)/C=C\C=C(/C)C(=O)NC(=CC1=O)C2=O [17-AAG] + CC(C)C[C@H](NC(=O)[C@H](Cc1ccccc1)NC(=O)c1cnccn1)B(O)O [Bortezomib] (partner 0.002 µM)
Outline: (§1)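 Cells from lung cancer lines were seeded into 1536-well plates and, one day later, dosed by pin tool. Treatments were either a single drug or a fixed dose of an anchor drug with five library-drug doses (not always all listed) in √10 steps. After 5 days, nuclei were stained in a one-step fixation (final 0.05% Triton X-100, 1% formaldehyde, 1 ug/ml Hoechst) and counted on 4× images, and relative viability is the treated-to-vehicle nuclei ratio, as the median of duplicate plates.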

[2] = compound: C=CCNC1=C2C[C@@H](C)C[C@H](OC)[C@H](O)[C@@H](C)/C=C(\C)[C@H](OC(N)=O)[C@@H](OC)/C=C\C=C(/C)C(=O)NC(=CC1=O)C2=O [17-AAG] + CCNC(=O)c1noc(-c2cc(C(C)C)c(O)cc2O)c1-c1ccc(CN2CCOCC2)cc1 [Luminespib] (partner 0.01 µM)
Outline: as §1

[3] = compound: C=CCNC1=C2C[C@@H](C)C[C@H](OC)[C@H](O)[C@@H](C)/C=C(\C)[C@H](OC(N)=O)[C@@H](OC)/C=C\C=C(/C)C(=O)NC(=CC1=O)C2=O [17-AAG] + CC(=O)c1c(C)c2cnc(Nc3ccc(N4CCNCC4)cn3)nc2n(C2CCCC2)c1=O [Palbociclib] (partner 0.5 µM)
Outline: as §1

[4] = compound: C=CCNC1=C2C[C@@H](C)C[C@H](OC)[C@H](O)[C@@H](C)/C=C(\C)[C@H](OC(N)=O)[C@@H](OC)/C=C\C=C(/C)C(=O)NC(=CC1=O)C2=O [17-AAG] + Cc1nc(Nc2ncc(C(=O)Nc3c(C)cccc3Cl)s2)cc(N2CCN(CCO)CC2)n1 [Dasatinib] (partner 0.075 µM)
Outline: as §1

Row | Cell Line | relative viability ([1]; first compound 0.00128 µM) | relative viability ([1]; first compound 0.004048 µM) | relative viability ([1]; first compound 0.0128 µM) | relative viability ([1]; first compound 0.128 µM) | relative viability ([2]; first compound 0.00128 µM) | relative viability ([2]; first compound 0.004048 µM) | relative viability ([2]; first compound 0.0128 µM) | relative viability ([2]; first compound 0.128 µM) | relative viability ([3]; first compound 0.00128 µM) | relative viability ([3]; first compound 0.004048 µM) | relative viability ([3]; first compound 0.0128 µM) | relative viability ([3]; first compound 0.128 µM) | relative viability ([4]; first compound 0.00128 µM) | relative viability ([4]; first compound 0.004048 µM) | relative viability ([4]; first compound 0.0128 µM) | relative viability ([4]; first compound 0.128 µM) | relative viability ([1]; first compound 0.04048 µM) | relative viability ([3]; first compound 0.04048 µM) | relative viability ([4]; first compound 0.04048 µM) | relative viability ([2]; first compound 0.04048 µM)
1 | HCC-827 | 0.962 | 0.995 | 1.04 | 0.849 | 0.579 | 0.706 | 0.652 | 0.291 | 0.47 | 0.463 | 0.499 | 0.325 | 0.332 | 0.39 | 0.253 | 0.32 | – | – | – | –
2 | HCC-78 | 0.538 | 0.482 | 0.539 | 0.6 | – | – | – | – | 0.47 | 0.464 | 0.475 | 0.424 | 0.358 | 0.508 | 0.403 | 0.193 | 0.368 | 0.442 | 0.359 | –
3 | NCI-H2085 | 1.08 | 1.02 | 1.11 | 0.714 | 0.521 | 0.447 | 0.462 | 0.314 | 0.51 | 0.472 | 0.479 | 0.337 | 0.184 | 0.271 | 0.243 | 0.298 | 1.04 | 0.443 | 0.292 | 0.345
4 | PC-3 [JPC-3] | 0.824 | 0.848 | 0.814 | 0.707 | 0.766 | 0.723 | 0.71 | 0.538 | 0.575 | 0.57 | 0.551 | 0.528 | 1.02 | 0.966 | 1 | 0.815 | – | 0.463 | – | –
5 | NCI-H2342 | – | – | – | – | 0.695 | 0.689 | 0.602 | 0.38 | 0.458 | 0.542 | 0.504 | 0.525 | 0.294 | 0.394 | 0.306 | 0.3 | – | 0.495 | 0.293 | 0.402
6 | A-427 | 1.01 | 1.05 | 0.965 | 0.625 | 0.994 | 0.902 | 0.66 | 0.183 | 0.554 | 0.506 | 0.54 | 0.291 | 0.698 | 0.709 | 0.692 | 0.156 | 0.921 | 0.354 | 0.538 | 0.379
7 | H3255 | 0.864 | 0.722 | 0.46 | 0.205 | 0.716 | 0.872 | 0.536 | 0.208 | 0.306 | 0.292 | 0.299 | 0.26 | 0.427 | 0.345 | 0.374 | 0.207 | 0.237 | 0.247 | 0.204 | 0.203
8 | HCC-44 | 0.865 | 0.854 | 0.903 | 0.142 | 0.758 | 0.663 | 0.228 | 0.172 | 0.944 | 1.01 | 0.991 | 0.914 | – | – | – | – | 0.466 | 0.978 | – | 0.217
9 | NCI-H1734 | 0.917 | 0.897 | 0.734 | 0.145 | 0.197 | 0.18 | 0.167 | 0.16 | 0.366 | 0.402 | 0.369 | 0.175 | 0.482 | 0.445 | 0.356 | 0.105 | 0.269 | 0.303 | 0.176 | 0.143
10 | NCI-H2228 | 0.88 | 0.304 | 0.137 | 0.135 | 0.124 | 0.102 | 0.11 | 0.107 | 0.672 | 0.483 | 0.131 | 0.107 | 0.46 | 0.119 | 0.0679 | 0.0837 | 0.167 | 0.101 | 0.089 | 0.157
11 | NCI-H358 | – | – | – | – | 0.273 | 0.235 | 0.121 | 0.0737 | 0.171 | 0.0944 | 0.0747 | 0.079 | 0.216 | 0.117 | 0.0644 | 0.0579 | – | 0.0677 | 0.0712 | 0.0893
12 | EBC-1 | 0.536 | 0.252 | 0.185 | 0.165 | – | – | – | – | – | – | – | – | – | – | – | – | 0.203 | – | – | –
13 | SK-MES-1 | – | – | – | – | 0.633 | 0.327 | 0.181 | 0.157 | 0.347 | 0.394 | 0.281 | 0.164 | 0.358 | 0.249 | 0.11 | 0.101 | – | 0.211 | 0.106 | 0.166
14 | SW 900 | – | – | – | – | 0.183 | 0.172 | 0.19 | 0.153 | 0.575 | 0.511 | 0.277 | 0.125 | 0.731 | 0.314 | 0.118 | 0.0968 | – | 0.192 | 0.0729 | 0.153
15 | NCI-H1703 | 0.316 | 0.154 | 0.145 | 0.138 | – | – | – | – | – | – | – | – | – | – | – | – | 0.153 | – | – | –
16 | NCI-H596 | 0.991 | 0.974 | 1.09 | 0.844 | 1.08 | 0.865 | 0.996 | 0.414 | – | – | – | – | 0.587 | 0.524 | 0.579 | 0.238 | 0.994 | – | 0.587 | 0.548
17 | NCI-H1944 | – | – | – | – | 0.595 | 0.603 | 0.565 | 0.151 | 0.331 | 0.341 | 0.3 | 0.151 | 0.198 | 0.199 | 0.175 | 0.15 | – | 0.281 | 0.158 | 0.219
18 | NCI-H1563 | 0.855 | 0.702 | 0.597 | 0.469 | 0.476 | 0.497 | 0.537 | 0.49 | – | – | – | – | 0.493 | 0.504 | 0.481 | 0.324 | 0.573 | – | 0.42 | 0.525
19 | NCI-H1395 | – | – | – | – | 0.638 | 0.535 | 0.329 | 0.331 | 0.632 | 0.61 | 0.532 | 0.384 | 0.429 | 0.366 | 0.304 | 0.287 | – | 0.373 | 0.326 | 0.359
20 | NCI-H2170 | – | – | – | – | 0.696 | 0.502 | 0.374 | 0.151 | 0.397 | 0.385 | 0.324 | 0.115 | 0.623 | 0.663 | 0.275 | 0.111 | – | 0.192 | 0.123 | 0.137
